In one assay the target is IsdH linker-NEAT3 (Staphylococcus aureus, UniProt Q931P4). In words: biochemical.
The target of the next assay is IsdH NEAT3 (Staphylococcus aureus, UniProt Q931P4). As to the kind of experiment: biochemical.

Molecules are shown by their SMILES.

IsdH linker-NEAT3, sequence (Q931P4 486-664): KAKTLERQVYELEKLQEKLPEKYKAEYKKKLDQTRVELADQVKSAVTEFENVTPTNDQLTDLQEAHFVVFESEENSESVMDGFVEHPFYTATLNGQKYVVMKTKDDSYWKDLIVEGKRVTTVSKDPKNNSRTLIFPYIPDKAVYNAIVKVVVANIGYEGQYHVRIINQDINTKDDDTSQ
IsdH NEAT3, sequence (Q931P4 539-664): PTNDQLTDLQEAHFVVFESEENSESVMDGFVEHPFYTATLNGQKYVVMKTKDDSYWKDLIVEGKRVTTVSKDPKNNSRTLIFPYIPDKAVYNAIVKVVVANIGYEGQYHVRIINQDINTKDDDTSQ

A word on the Kd: it is the concentration at which binding is half-saturated. Take `C=CC1=C(C)C2=Cc3c(C=C)c(C)c4[n]3[Fe]([Cl])[n]3c(c(C)c(CCC(=O)O)c3=CC3=NC(=C4)C(C)=C3CCC(=O)O)=CC1=N2` [heme]: the Kd is 0.51 ± 0.16 nM on IsdH linker-NEAT3 and 1.05 ± 0.15 nM on IsdH NEAT3.

Source of the values: PMC9163592 (The Journal of Biological Chemistry, 2022).
